What was measured:
[1] = DPPH free-radical scavenging reaction; assay type: biochemical; conditions: for DPPH free-radical scavenging rate: 20 min, 25° C., 517 nm
Protocol: In this study, 1,1-diphenyl-2-picryl-hydrazyl (DPPH) free-radical scavenging reaction model has been used to observe the free-radical scavenging activity of the salvianolic acid L. The total reaction volume was 2 ml. 1 ml of the sample solutions at different concentrations in 80% methanol (v/v) were added into 100 μM of DPPH methanol solution, mixed uniformly to allow the solution to react for 20 min at 25° C. in the dark. Absorbance of the reaction solution was measured at 517 nm. In this study, vitamin C was regarded as a positive control. Free-radical scavenging rate was calculated in accordance with the following equation: Free-radical scavenging rate (%)=[1−Asample/Acontrol)/Acontrol]×100% Wherein, the Asample means the absorbance of the tested samples, and Acontrol means the absorbance of blank control.

H2O2-damaged PC12 cell [2] = experiment: Cell survival rate of H2O2-damaged PC12 cell (MTT method); assay type: cell-based; conditions: pre-treated 6 hours, 0.5 mM H2O2 1 hour
Protocol: (§1) a. MTT was added into 96-well microplate with 20 μl in each well, and reacted for 4 hours in incubator.
(§2) b. The supernatant was discarded, followed by addition of 150 μl DMSO in each well and shaken on flat shaking-table for 10 min.
(§3) c. Absorbance of each well was measured by ELISA reader at wavelength of 570 nm to calculate cell survival rate.
(§4) Cell survival rate %=(OD value of drug administration group/OD value of negative control group)×100%
(§5) a. PC12 cells at, exponential growth phase in good condition were washed with PBS twice, followed by addition of 0.25% trypsin digestive solution to perform digestion at 37° C. for about 1 min. This reaction was ended by addition of blood serum-contained culture medium, centrifuged and resuspended, then counted the cells to prepare a suspension with a cell density of 2×10^4−4×10^4 cells/ml.
(§6) b. The resulting cell suspension was inoculated into 96-well microplate with 180 μl in each well (n=3) and incubated in constant temperature CO2 incubator at 37° C. for 24 hours.
c. Grouping and treatments: there were 4 groups: blank control group (PBS), solvent control group (DMSO), model group (H2O2) and positive control group (Edaravone).
Positive control group: Edaravone (2 μg/ml) is added as a positive drug and then pre-treated for 6 hours, into which 0.5 mM hydrogen peroxide was added to damage for 1 hour and replaced with freshly-prepared DMEM+10%FBS culture medium, 200 μl per well.
(§7) d. The cell activity was determined by MTT method.
as §5, with “at” for “at,”
(§8) c. Grouping and treatments: there were 5 groups: blank control group (PBS), solvent control group (DMSO or ethyl acetate), model group (H2O2), positive control group (Edaravone) and drug treatment group.
(§9) Model group: 0.5 mM hydrogen peroxide (H2O2) was used to treat for 1 hour.
(§10) Positive control group: Edaravone (2 μg/ml ), used as a positive drug, was added to cell and pre-treated for 6 hours, into which 0.5 mM hydrogen peroxide was added to damage for 1 hour and replaced with freshly-prepared DMEM+10%FBS culture medium.
(§11) Drug treatment group: after the cell was inoculated into culture microplate, different tested drugs at different concentration were added firstly and pre-treated for 6 hours with 20 μl per well, into which 0.5 mM H2O2 was added to damage for 1 hour, and then replaced with freshly-prepared DMEM+10%FBS culture medium.
e. The activity of cell in cell microplate was determined by MTT method.

[3] = test system: PC12 cell of oxygen-glucose deprivation; experiment: Cell survival rate of PC12 cell of oxygen-glucose deprivation (MTT method); assay type: cell-based; conditions: pre-treated 6 hours
Protocol: as §1, §2, §3, §4
as §5, with “at” for “at,”
as §6
c. Grouping and treatments: there were 3 groups: blank control group (normoxia+0.1% DMS0), model group (OGD+0.1% DMSO, oxygen-glucose deprivation) and positive control group (Edaravone).
Model group: the cell in culture microplate was cultured with glucose-free DMEM medium, which was placed in a hypoxic chamber, started to record time for 0.5 hour when O2% was less than 2.6, and then transferred to a routine incubator. The determination was carried out after a period of time of incubation.
Positive control group: Edaravone (2 μg/ml) was used as a positive drug. Drug was added and pre-treated for 6 hours, and then replaced with glucose-free medium, 180 μl per well. The drug was added again, placed in a hypoxic chamber, started to record time for 0.5 hour when O2% was less than 2.6, and then transferred to a routine incubator. The determination was carried out after a period of time of incubation.
as §7
(§12) c. Grouping and treatments: there were 4 groups: blank control group (normoxia+0.1% DMSO), model group (OGD+DMSO, oxygen-glucose deprivation), positive control group (Edaravone) and the drug treatment group.
(§13) Model group: the culture medium for the cells in microplate was changed to glucose-free DMEM, placed in a hypoxic chamber, and started to record time for 0.5 hour when O2% was less than 2.6, and then transferred to a routine incubator to culture overnight.
(§14) Positive control group: Edaravone (2 μg/ml ) was used as a positive drug. Drug was added and pre-treated for 6 hours, and then the culture medium was replaced with glucose-free DMEM medium, 180 μl per well. The drug was added again, placed in a hypoxic chamber, started to record time for 0.5 hour when 02% was less than 2.6, and then transferred to a routine incubator to culture overnight.
(§15) Drug treatment group: the drug at different concentrations was added and pre-treated for 6 hours, the culture medium was changed to glucose-free DMEM medium, 180 μl per well. The drug was added again, placed in a hypoxic chamber, started to record time for 0.5 hour when O2% was less than 2.6, and then transferred to a routine incubator to culture overnight.
e. The activity of cell was determined by MTT method.

[4] = test system: PC12 cell of oxygen-glucose deprivation (OGD); experiment: LDH activity of PC12 cell of oxygen-glucose deprivation (OGD); assay type: cell-based; conditions: pre-treated 6 hours, OGD 0.5 hour, cultured overnight, supernatant
Protocol: (§16) The experiment of determination was carried out according to the Specification of LDH test kit provided by Nanjing Jiangcheng Bioengineering Institute.
(§17) LDH activity (U/L)=(ODU−ODC)/(ODS−ODB)×CS×N×1 000
(§18) Wherein, ODU represented the absorbance of the tested sample, ODC represented the absorbance of control sample, ODB represented the absorbance of blank, ODS represented the absorbance of standard solution, CS represented the standard concentration of 2 mmol/L, N represented the dilution multiple of sample before determination.
as §5, with “at” for “at,”
as §6, §12, §13, §14, §15
d. Resulting supernatant was collected the next day with 20 μl per well, which was used for determination of LDH activity.

[5] = Determination of reducing capacity (potassium ferricyanide / ferric chloride, absorbance at 700 nm); assay type: biochemical; conditions: FIG. 10; in words, compared with vitamin C
Protocol: 0.5 ml of 200 mM phosphate buffer (pH6.8) containing different concentrations of the salvianolic acid L and 1.0% potassium ferricyanide solution were sucked respectively and cooled on an ice bath after being heated on a water bath (50° C.) for 20 min. 0.5 ml of trichloroacetic acid solution (10%) was added and centrifuged at […] for 10 min. 1.0 ml of the resulting supernatant was taken, into which 1.0 ml of distilled water and 0.2 ml of ferric chloride solution (0.1%) were added, stood still for 10 min and the absorbance was measured at 700 nm. Meanwhile, the blank experiment was carried out. Vitamin C is a strongly reducing substance, acting as positive control in this study. Reducing capacity of the sample is represented by subtracting the absorbance of the blank control from the absorbance of the tested sample. Thus, it means the higher absorbance, the stronger reducing capacity.

H2O2-damaged PC12 cell [6] = experiment: LDH activity of H2O2-damaged PC12 cell; assay type: cell-based; conditions: pre-treated 6 hours, 0.5 mM H2O2 1 hour, supernatant
Protocol: as §16, §17, §18
as §5, with “at” for “at,”
as §6, §8, §9, §10, §11
d. The supernatant was collected, 20 μl per well, for determination of LDH activity.

[7] = final concentration 0.02 μg/ml, OGD 0.5 hour, cultured overnight
[8] = final concentration 0.2 μg/ml, OGD 0.5 hour, cultured overnight
[9] = final concentration 2 μg/ml, OGD 0.5 hour, cultured overnight

## O=C(/C=C/c1ccc(O)c(O)c1/C(=C/c1ccc(O)c(O)c1)C(=O)O)OC(Cc1ccc(O)c(O)c1)C(=O)O (centres unmarked) [salvianolic acid L]
[1]; compared with vitamin C, Table 3 and FIG. 9
  DPPH free-radical scavenging rate (in words): much higher free-radical scavenging rate than that of the vitamin C
[1]; sample 0.314 μg/ml
  DPPH free-radical scavenging rate: 5.41 ± 0.74%
[1]; sample 0.625 μg/ml
  DPPH free-radical scavenging rate: 12.95 ± 2.42%
[1]; sample 1.25 μg/ml
  DPPH free-radical scavenging rate: 25.21 ± 1.82%
[1]; sample 2.5 μg/ml
  DPPH free-radical scavenging rate: 44.19 ± 3.70%
[1]; sample 5 μg/ml
  DPPH free-radical scavenging rate: 83.17 ± 4.12%
H2O2-damaged PC12 cell [2]; final concentration 0.02 μg/ml
  Survival rate (%): 47.2 ± 0.8 %
H2O2-damaged PC12 cell [2]; final concentration 0.2 μg/ml
  Survival rate (%): 44.89 ± 0.48%
H2O2-damaged PC12 cell [2]; final concentration 2 μg/ml
  Survival rate (%): 48.34 ± 0.25%
[3]; [7]
  Survival rate (%): 47.74 ± 1.72 %
[3]; [8]
  Survival rate (%): 36.68 ± 2.72 %
[3]; [9]
  Survival rate (%): 35.96 ± 1.44%
[4]; final concentration 0.02 μg/ml
  LDH activity (U/L): 53.69 ± 29.23 U/L
[4]; final concentration 0.2 μg/ml
  LDH activity (U/L): 31.32 ± 11.55 U/L
[4]; final concentration 2 μg/ml
  LDH activity (U/L): 40.27 ± 5.17 U/L
[5]
  reducing capacity (absorbance at 700 nm minus blank): much stronger than that of vitamin C
H2O2-damaged PC12 cell [6]; final concentration 0.02 μg/ml
  LDH activity (U/L): 550.336 ± 25.83 U/L
H2O2-damaged PC12 cell [6]; final concentration 0.2 μg/ml
  LDH activity (U/L): 474.27 ± 71.96 U/L
H2O2-damaged PC12 cell [6]; final concentration 2 μg/ml
  LDH activity (U/L): 487.70 ± 72.51 U/L

## O=C1O[C@H]([C@@H](O)CO)C(O)=C1O [Vitamin C]
[1]; sample 0.314 μg/ml
  DPPH free-radical scavenging rate: 3.42 ± 0.42%
[1]; sample 0.625 μg/ml
  DPPH free-radical scavenging rate: 7.06 ± 1.88%
[1]; sample 1.25 μg/ml
  DPPH free-radical scavenging rate: 13.82 ± 1.83%
[1]; sample 2.5 μg/ml
  DPPH free-radical scavenging rate: 29.39 ± 5.92%
[1]; sample 5 μg/ml
  DPPH free-radical scavenging rate: 55.34 ± 7.21%

## CC1=NN(c2ccccc2)C(=O)C1 [Edaravone]
H2O2-damaged PC12 cell [2]; establishment of hydrogen peroxide-damaged model, 2 μg/ml
  Survival rate (%): 53.54 ± 3.66 %
H2O2-damaged PC12 cell [2]; final concentration 0.02 μg/ml
  Survival rate (%): 47.6 ± 2 %
H2O2-damaged PC12 cell [2]; final concentration 0.2 μg/ml
  Survival rate (%): 44.2 ± 6.11%
H2O2-damaged PC12 cell [2]; final concentration 2 μg/ml
  Survival rate (%): 58.18 ± 2.64 %
[3]; establishment of oxygen-glucose deprivation model, 2 μg/ml
  Survival rate (%): 48.50 ± 1.81 %
[3]; [7]
  Survival rate (%): 44.75 ± 1.02 %
[3]; [8]
  Survival rate (%): 36.37 ± 2.52 %
[3]; [9]
  Survival rate (%): 39.99 ± 0.55 %
[4]; final concentration 0.02 μg/ml
  LDH activity (U/L): 40.27 ± 5.17 U/L
[4]; final concentration 0.2 μg/ml
  LDH activity (U/L): 22.37 ± 5.17 U/L
[4]; final concentration 2 μg/ml
  LDH activity (U/L): 31.32 ± 5.17 U/L
H2O2-damaged PC12 cell [6]; final concentration 0.02 μg/ml
  LDH activity (U/L): 532.44 ± 11.55 U/L
H2O2-damaged PC12 cell [6]; final concentration 0.2 μg/ml
  LDH activity (U/L): 568.23 ± 11.55 U/L
H2O2-damaged PC12 cell [6]; final concentration 2 μg/ml
  LDH activity (U/L): 523.49 ± 5.17 U/L
